Reference: patent publication US4306069A, “Encainide N-oxide” (priority 1980, dated 1981)
Converted amounts (≈) assume the structure as drawn. “Also recorded” adds a separate entry of the source. Where a name gives a salt, the structure may show the parent alone.

Assays:
Water solubility = type: physicochemical
[1] = Toxicity, oral doses in mice (ALD50, ATD50); type: in vivo; details: in vivo, mouse, oral, 5 mg/kg to 2000 mg/kg, 2 mice each dose; for LD50: read-out: ALD50 (approximate lethal dose for half the animals); for TD50: read-out: ATD50 (approximate lowest dose where signs of physiologic or neurologic deficit appear)
Procedure: (§1) ^(1) Various oral doses of from 5 mg/kg to 2000 mg/kg are given to 2
(§2) mice each; ALD50 is the approximate lethal dose for half the animals
(§3) ATD50 is the approximate lowest dose where signs of physiologic or
(§4) neurologic deficit appear.

mice = test: Toxicity, oral doses in mice (ALD50, ATD50); type: in vivo; details: compared with encainide and its hydrochloride salt
Procedure: as §1, §2, §3, §4

dog = test: Dog I.V.: anesthetized dog, effects on blood pressure, respiration and paw temperature; type: in vivo; details: for Toxicity, Dog I.V., effect at 1 mg/kg: first dose 1 mg/kg, blood pressure, respiration, paw temperature
Procedure: ^(2) Anesthesized dog treated first with a 1 mg/kg dose and then with
a 10 mg/kg dose; effects on blood pressure, respiration, and paw
temperature are observed.

[2] = tested on: ouabain induced ventricular tachycardia; test: Antiarrhythmic activity, ouabain induced ventricular tachycardia in the dog; type: in vivo; details: compared with quinidine and encainide
Excerpt: The present substance is an improved antiarrhythmic agent.
^(3) Anesthetized open chest dog, ouabain induced (Byrne, J.E., et al

[3] = tested on: ventricular arrhythmia produced by chloroform inhalation; test: Antiarrhythmic activity, ventricular arrhythmia produced in mice by chloroform inhalation; type: in vivo; details: 10 animals per dose
Excerpt: ^(4) Ventricular arrhythmia produced in mice by chloroform inhalation
10 animals per dose (Lawson, J. W., J. Pharmacol. Exp. Therap. 160, 22

| SMILES | Water solubility, in words (Water solubility) | solubility (Water solubility; water) [mg/mL] | LD50 [1] [mg/kg] | TD50 [1] [mg/kg] | Toxicity relative to encainide, in words (mice) | Toxicity, Dog I.V., effect at 1 mg/kg (dog) | Antiarrhythmic activity in ouabain induced ventricular tachycardia, in words [2] | Antiarrhythmic Activity, Mouse, I.P., activity at 31.3 mg/kg ([3]; 31.3 mg/kg) | Water solubility (Water solubility; water) [mg/mL] | Toxicity, Dog I.V., effect at 10 mg/kg (dog; 10 mg/kg after 1 mg/kg) | ED50 ([3]; ip, mouse, I.P.) [mg/kg] |
| --- | --- | --- | --- | --- | --- | --- | --- | --- | --- | --- | --- |
| COc1ccc(C(=O)Nc2ccccc2CCC2CCCC[N+]2(C)[O-])cc1 (racemic) [Encainide N-Oxide, 4-Methoxy-N-[2-[2-(1-methyl-2-piperidyl)ethyl]phenyl]-benzamide N-oxide] | increased water solubility; also recorded: highly water soluble | 833 (≈ 2260 mM) | 500 to 1000 | 62.5 to 125 | substantially reduced toxicity | no effect | comparable to quinidine in activity, but somewhat less active than encainide | inactive | – | – | – |
| COc1ccc(C(=O)Nc2ccccc2CCC2CCCCN2C)cc1 (centres unmarked) [Encainide] | rather low water solubility | – | 50 to 100 | 5 to 10 | – | no effect | – | – | 46.3 | lethal | 7.1 to 15 |
| COc1ccc(C(=O)Nc2ccccc2CCC2CCCCN2C)cc1 (centres unmarked) [hydrochloride salt] | higher water solubility relative to the base | – | – | – | – | – | – | – | 205 | – | – |
